US6784175B2, “Use of substituted 1-amino-5-phenylpentane-3-ol and/or 1-amino-6-phenylhexane-3-ol compounds as medicaments” (Gruenenthal GmbH, priority 2000, dated 2004)

Legend:
[1] = system: (+)-MK801 binding site of the ionotropic NMDA receptor; experiment: (3H)-(+)-MK801 receptor bonding test on rat cerebral membrane homogenates; conditions: 1 nmol/l (3H)-(+)-MK801, rat brain membrane homogenate; for Percentage inhibition of (3H)-(+)-MK801 binding at 10 μM: 10 μmol/l compound, triple determinations; for Ki: calculated from IC50 by Cheng-Prusoff equation
Method: Research to determine the NMDA antagonistic effect of each compound in general formula I was carried out on cerebral membrane homogenates (homogenate of rat brain without cerebellum, pons and medulla oblongata taken from male Wistar rats (Charles River, Sulzfeld, Germany)).
For this purpose, after separating the cerebellum, pons and medulla oblongata, freshly prepared rat brains were macerated in 50 mmol/l of tris/HCl (pH 7.7) with a Polytron homogeniser (model PT3000, Kinematika AG, Littau, Switzerland) at 6000 revolutions per minute (rpm) for 1 minute with ice cooling and centrifuged for 15 minutes at 4° C. and 60,000 g. After decanting and discarding the supernatant, again placing in 50 mmol/l of tris/HCl (pH 7.7) and macerating the membrane pellet with a homogeniser at 2000 rpm for 1 minute, it was centrifuged again for 15 minutes at 4° C. and 60,000 g. The supernatant was again discarding and the membrane pellet homogenised (2000 rpm for 1 minute) in 50 mmol/l of tris/HCl (pH 7.7) and frozen in aliquots at −70° C.
For the receptor bonding test, each aliquot was defrosted and then centrifuged for 15 minutes at 4° C. and 60,000 g. After decanting and discarding the supernatant, the membrane pellet was taken up with bonding test buffer and homogenised (2000 rpm for 1 minute). The bonding test buffer was 5 mmol/l tris/HCl (pH 7.7) supplemented with 30 μmol/l of glycine and 100 μmol/l of glutamic acid.
1 nmol/l of (^3H)-(+)-MK801 ((5R, 10S)-(+)-5-methyl-10,11-dihydro-5H-dibenzo(a,d)cycloheptane-5,10-imine was used as a radioactively marked ligand (NET-972, NEN, Cologne Germany). The proportion of unspecific bonding was determined in the presence of 10 μmol/l of non-radioactively marked (+)-MK801 (RBI/Sigma, Deisenhofen, Germany). In further batches, each of the compounds of general formula I were added in series of concentrations and the displacement of the radioactive ligand out of its specific bond to the NMDA receptor determined. All the batches were subjected to triple determinations. The batches were each incubated for 40 minutes at 25° C. in a water bath and then harvested for determination of the radioactive ligand bound to the cerebral membrane homogenate by means of filtration through glass-fibre filters (GF/B) (Whatman GF/B, Hassel, Munich, Germany). The radioactivity retained by the glass-fibre filter discs was measured in a β counter (Packard TRI-CARB Liquid Scintillation Analyser 2000CA, Packard Instrument, Meriden, Conn. 06450, USA) after adding a scintillator (“Ready Protein” scintillator, Beckmann Coulter GmhH, Krefeld, Germany).
The percentage inhibition of the specific bonding of the ligand (^3H)-(+)-MK801 in the presence of 10 μmol/l of each compound of general formula I resulting from the triple batches is used as a measure of the affinity of the compound for the (+)-MK801 binding site of the ionotropic NMDA receptor. From batches with concentration series of these compounds of general formula I, the IC50 values (concentration of substituted compounds with 50% displacement of radioactive ligand out of its specific bond) were calculated in accordance with the law of mass action using non-linear regression. From these IC50 values, the Kj values were calculated in accordance with the Cheng-Prusoff equation (Y. Cheng, W. H. Prusoff, 1973, Biochem. Pharmacol., 22, pp 3099-3108).

Compound: CN(C)C(c1ccccc1)C1CCCCC1(O)CCc1ccccc1.Cl (stereo not shown) [Example 1, 2-(dimethylaminophenylmethyl)-1-phenethylcyclohexanol, hydrochloride]
- Percentage inhibition of (3H)-(+)-MK801 binding at 10 μM [1]: 56%
- Ki [1]: 3800 nM
- melting point: 100 °C

Compound: CN(C)C(c1ccccc1Cl)C1CCCCC1(O)CCc1ccccc1.Cl (stereo not shown) [Example 2, 2-[(2-chlorophenyl)dimethylaminomethyl]-1-phenethylcyclohexanol, hydrochloride]
- Percentage inhibition of (3H)-(+)-MK801 binding at 10 μM [1]: 95%
- Ki [1]: 1700 nM
- melting point: 110 °C

Compound: CN(C)C(c1ccccc1Br)C1CCCCC1(O)CCc1ccccc1.Cl (stereo not shown) [Example 3, 2-[(2-bromophenyl)dimethylaminomethyl]-1-phenethylcyclohexanol, hydrochloride]
- Percentage inhibition of (3H)-(+)-MK801 binding at 10 μM [1]: 91%
- Ki [1]: 1700 nM
- melting point: 162 to 165 °C

Compound: COc1cccc(C(C2CCCCC2(O)CCc2ccccc2)N(C)C)c1.Cl (stereo not shown) [Example 4, 2-[dimethylamino-(3-methoxyphenyl)methyl]-1-phenethylcyclohexanol, hydrochloride]
- Percentage inhibition of (3H)-(+)-MK801 binding at 10 μM [1]: 51%
- Ki [1]: 6200 nM
- melting point: 90 °C

Compound: Cc1ccccc1C(C1CCCCC1(O)CCc1ccccc1)N(C)C.Cl (stereo not shown) [Example 5, 2-(dimethylamino-o-tolylmethyl)-1-phenethylcyclohexanol, hydrochloride]
- Percentage inhibition of (3H)-(+)-MK801 binding at 10 μM [1]: 93%
- Ki [1]: 1300 nM
- melting point: 187 to 188 °C

Compound: CN(C)C(c1ccccc1)C1CCCCC1(O)CCCc1ccccc1.Cl (stereo not shown) [Example 6, 2-(dimethylaminophenylmethyl)-1-(3-phenylpropyl)cyclohexanol, hydrochloride]
- Percentage inhibition of (3H)-(+)-MK801 binding at 10 μM [1]: 74%
- Ki [1]: 2600 nM
- melting point: 90 °C

Compound: CN(C)C(c1ccccc1)C1CCCCC1(O)CCc1ccccc1F.Cl (stereo not shown) [Example 7, 2-(dimethylaminophenylmethyl)-1-[2-(2-fluorophenyl)ethyl]cyclohexanol, hydrochloride]
- Percentage inhibition of (3H)-(+)-MK801 binding at 10 μM [1]: 91%
- Ki [1]: 1100 nM
- melting point: 95 °C

Compound: CN(C)C(c1ccccc1F)C1CCCCC1(O)CCc1ccccc1.Cl (stereo not shown) [Example 8, 2-[dimethylamino-(2-fluorophenyl)methyl]-1-phenethylcyclohexanol, hydrochloride]
- Percentage inhibition of (3H)-(+)-MK801 binding at 10 μM [1]: 91%
- Ki [1]: 1600 nM
- melting point: 172 to 174 °C

Compound: CN(C)C(c1ccccc1Cl)C1CCCCC1(O)CCc1ccc(F)cc1.Cl (stereo not shown) [Example 9, 2-[(2-chlorophenyl)dimethylaminomethyl]-1-[2-(4-fluorophenyl)ethyl]cyclohexanol, hydrochloride]
- Percentage inhibition of (3H)-(+)-MK801 binding at 10 μM [1]: 67%
- Ki [1]: 3800 nM
- melting point: 170 °C

Compound: CN(C)C(c1ccccc1Cl)C1CCCCC1(O)CCc1ccccc1F.Cl (stereo not shown) [Example 10, 2-[(2-chlorophenyl)dimethylaminomethyl]-1-[2-(2-fluorophenyl)ethyl]cyclohexanol, hydrochloride]
- Percentage inhibition of (3H)-(+)-MK801 binding at 10 μM [1]: 102%
- Ki [1]: 400 nM
- melting point: 162 to 163 °C

Compound: CN(C)C(c1ccccc1Cl)C1CCCCC1(O)CCc1cccc(F)c1.Cl (stereo not shown) [Example 11, 2-[(2-chlorophenyl)dimethylaminomethyl]-1-[2-(3-fluorophenyl)ethyl]cyclohexanol, hydrochloride]
- Percentage inhibition of (3H)-(+)-MK801 binding at 10 μM [1]: 93%
- Ki [1]: 2100 nM
- melting point: 120 to 126 °C

Compound: CN(C)C(c1ccccc1)C1CCCCC1(O)CCc1ccccc1Cl.Cl (stereo not shown) [Example 12, 1-[2-(2-chlorophenyl)ethyl]-2-(dimethylaminophenylmethyl)cyclohexanol, hydrochloride]
- Percentage inhibition of (3H)-(+)-MK801 binding at 10 μM [1]: 85%
- Ki [1]: 1500 nM
- melting point: 152 °C

Compound: CN(C)C(c1ccccc1)C1CCCCC1(O)CCc1cccc(Cl)c1.Cl (stereo not shown) [Example 13, 1-[2-(3-chlorophenyl)ethyl]-2-(dimethylaminophenylmethyl)cyclohexanol, hydrochloride]
- Percentage inhibition of (3H)-(+)-MK801 binding at 10 μM [1]: 61%
- Ki [1]: 3100 nM
- melting point: 95 °C

Compound: Cl.OC1(CCc2ccccc2)CCCCC1C(c1ccccc1)N1CCCCC1 (stereo not shown) [Example 14, 1-phenethyl-2-(phenylpiperidine-1-yl-methyl)cyclohexanol, hydrochloride]
- Percentage inhibition of (3H)-(+)-MK801 binding at 10 μM [1]: 88%
- Ki [1]: 2800 nM
- melting point: 127 °C

Compound: Cc1ccccc1CCC1(O)CCCCC1C(c1ccccc1)N(C)C.Cl (stereo not shown) [Example 37, 2-(dimethylaminophenylmethyl)-1-(2-o-tolylethyl)cyclohexanol, hydrochloride]
- Percentage inhibition of (3H)-(+)-MK801 binding at 10 μM [1]: 77%
- Ki [1]: 1800 nM

Compound: Cc1ccccc1CCC1(O)CCCCC1C(c1ccccc1Br)N(C)C.Cl (stereo not shown) [Example 38, 2-[(2-bromophenyl)dimethylaminomethyl]-1-(2-o-tolylethyl)cyclohexanol, hydrochloride]
- Percentage inhibition of (3H)-(+)-MK801 binding at 10 μM [1]: 93%
- Ki [1]: 2300 nM

Compound: Cc1ccccc1CCC1(O)CCCCC1C(c1ccccc1C)N(C)C.Cl (stereo not shown) [Example 39, 2-(dimethylamino-o-tolylmethyl]-1-(2-o-tolylethyl)cyclohexanol, hydrochloride]
- Percentage inhibition of (3H)-(+)-MK801 binding at 10 μM [1]: 90%
- Ki [1]: 1400 nM

Compound: CN(C)C(c1ccccc1Br)C1CCCCC1(O)CCCc1ccccc1.Cl (stereo not shown) [Example 40, 2-[(2-bromophenyl)dimethylaminomethyl]-1-(3-phenylpropyl)cyclohexanol, hydrochloride]
- Percentage inhibition of (3H)-(+)-MK801 binding at 10 μM [1]: 82%
- Ki [1]: 1900 nM

Compound: CN(C)C(c1ccc(F)cc1Cl)C1CCCCC1(O)CCc1ccccc1F.Cl (stereo not shown) [Example 41, 2-[(2-chloro4-fluorophenyl)dimethylaminomethyl]-1-[2-(2-fluorophenyl)ethyl]cyclohexanol, hydrochloride]
- Percentage inhibition of (3H)-(+)-MK801 binding at 10 μM [1]: 94%
- Ki [1]: 1200 nM

Compound: CN(C)C(c1ccc(F)cc1Cl)C1CCCCC1(O)CCc1ccccc1Cl.Cl (stereo not shown) [Example 42, 2-[(2-chloro4-fluorophenyl)dimethylaminomethyl]-1-[2-(2-chlorophenyl)ethyl]cyclohexanol, hydrochloride]
- Percentage inhibition of (3H)-(+)-MK801 binding at 10 μM [1]: 85%
- Ki [1]: 2000 nM

Compound: Cc1ccccc1CCC1(O)CCCCC1C(c1ccccc1F)N(C)C.Cl (stereo not shown) [Example 43, 2-[dimethylamino-(2-fluorophenyl)methyl]-1-(2-o-tolylethyl)cyclohexanol, hydrochloride]
- Percentage inhibition of (3H)-(+)-MK801 binding at 10 μM [1]: 92%
- Ki [1]: 1400 nM

Compound: CN(C)C(c1ccccc1F)C1CCCCC1(O)CCCc1ccccc1.Cl (stereo not shown) [Example 44, 2-[dimethylamino-(2-fluorophenyl)methyl]-1-(3-phenylpropyl)cyclohexanol, hydrochloride]
- Percentage inhibition of (3H)-(+)-MK801 binding at 10 μM [1]: 91%
- Ki [1]: 1400 nM

Compound: Cc1ccccc1C(C1CCCCC1(O)CCCc1ccccc1)N(C)C.Cl (stereo not shown) [Example 45, 2-(dimethylamino-o-tolylmethyl)1-(3-phenylpropyl)cyclohexanol, hydrochloride]
- Percentage inhibition of (3H)-(+)-MK801 binding at 10 μM [1]: 91%
- Ki [1]: 1800 nM

Compound: CN(C)C(c1ccccc1C(F)(F)F)C1CCCCC1(O)CCc1ccccc1Cl.Cl (stereo not shown) [Example 46, 1-[2-(2-chlorophenyl)ethyl]-2-[dimethylamino-(2-trifluoromethylphenyl)methyl]cyclohexanol, hydrochloride]
- Percentage inhibition of (3H)-(+)-MK801 binding at 10 μM [1]: 79%
- Ki [1]: 1900 nM

Compound: CN(C)C(c1ccccc1C(F)(F)F)C1CCCCC1(O)CCc1ccccc1F.Cl (stereo not shown) [Example 47, 2-[dimethylamino-(2-trifluoromethylphenyl)methyl]-1-[2-(2-fluorophenyl)ethyl]cyclohexanol, hydrochloride]
- Percentage inhibition of (3H)-(+)-MK801 binding at 10 μM [1]: 90%
- Ki [1]: 1400 nM
